In patent publication US8575158B2, “1-phenyl-substituted heterocyclyl derivatives and their use as prostaglandin D2 receptor modulators” (Actelion Pharmaceuticals Ltd., priority 2010, dated 2013) one finds IC50 data, which are given here for 16 compounds.

For this assay, the target named is T1, hCRTH2 receptor (Homo sapiens, UniProt Q9Y5Y4).
T1 construct: expressed in transfected cells; host or cells: HEK293
T1 sequence (Q9Y5Y4 1-395): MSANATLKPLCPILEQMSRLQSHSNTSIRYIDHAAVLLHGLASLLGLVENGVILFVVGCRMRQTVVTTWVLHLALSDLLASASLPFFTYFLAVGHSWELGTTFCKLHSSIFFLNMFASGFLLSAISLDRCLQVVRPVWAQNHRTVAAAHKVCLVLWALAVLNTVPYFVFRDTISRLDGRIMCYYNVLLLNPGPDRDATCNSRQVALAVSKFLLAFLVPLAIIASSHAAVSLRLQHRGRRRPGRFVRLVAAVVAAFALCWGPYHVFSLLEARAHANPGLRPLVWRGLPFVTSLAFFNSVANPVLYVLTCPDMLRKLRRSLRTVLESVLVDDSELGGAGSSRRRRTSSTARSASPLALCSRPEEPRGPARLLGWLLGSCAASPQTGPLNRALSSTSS
The assay is described as follows: Radioligand displacement assay (3H-PGD2) on hCRTH2 receptor membranes. In kind it is binding. The conditions noted are these: antagonistic activity. Here is the method: First, recombinant HEK293-hCRTH2 cells were detached from culture plates into 5 ml buffer A/plate (Buffer A: 5 mM Tris, 1 mM MgCl2-6H2O pH=7.4) using a rubber policeman. Cells were then transferred into centrifugation tubes and centrifuged for 5 min at 400 g. The cell pellet was resuspended in the same buffer and tubes were frozen at −80° C. Cells were thawed and membrane fragments were generated by homogenization using a polytron homogenizer (30 seconds). The membrane fragments were then centrifuged at 3000 g for 20 minutes and resuspended in buffer C (Buffer C: 75 mM Tris, 25 mM MgCl2, 250 mM Saccharose pH 7.4). Aliquots of membrane fragments were stored at −20° C.
Binding assay was performed in a final assay volume of 250 μl. First, 25 μl of test compound, previously diluted in Binding-Buffer (Binding-Buffer: 50 mM Tris-Base, 100 mM NaCl, 1 mM EDTA, 0.1% BSA (protease free), 0.01% NaN3, 10 mM MnCl2, pH 7.0) was placed into each well. After addition of 75 μl Binding-Buffer, 50 μl of the radioligand ^3H-PGD2 (at 2.5 nM (220.000 dpm/well) from ANAWA ART0662) was added to each well. Binding assay was started by addition of 100 μl CRTH2 membrane fragments, reaching a final concentration of 20 μg/well. For non-specific binding, PGD2 was added to the reaction mixture to […] final concentration.
This assay mix was incubated for 90 minutes at room temperature and then filtered through a GF/C filter 96-well plate which was pre-soaked for 3 hours in 0.5% polyethyleneimine (PEI). The filter-wells were washed three times with ice cold Binding-Buffer. Then, 40 μl of Microscint-40 (Packard) was added to each well and the retained radioactivity quantified in a Topcount (Packard).
In general terms: Loss of bound radioactivity is the signal in a displacement assay; it reports binding, not function.

[1] abbreviates: 3H-PGD2 radioligand displacement, HEK293-hCRTH2 membranes.
[2] abbreviates: 3H-PGD2 displacement on HEK293-hCRTH2 membrane fragments.

`O=C(O)COc1ccc(Cl)cc1[C@@H]1c2ccc(F)c(F)c2CCN1C(=O)OCc1cccc(F)c1F` [Example 351, (S)-1-(2-Carboxymethoxy-5-chloro-phenyl)-5,6-difluoro-3,4-dihydro-1H-isoquinoline-2-carboxylic acid 2,3-difluoro-benzyl ester]: under setting [1], the IC50 (as a rule, the concentration that gives 50% inhibition) was found to be 3.27 nM. Still for that read-out and setting: for `COc1ncc(C)cc1OCC(=O)N1CCc2ccccc2C1c1cc(Cl)ccc1OCC(=O)O` (racemic) [Example 484] the value was 161 nM. `O=C(O)COc1ccc(F)cc1C1c2cc(F)ccc2CCN1C(=O)OCc1ccccc1` (racemic) [Example 41, (±)-1-(2-Carboxymethoxy-5-fluoro-phenyl)-7-fluoro-3,4-dihydro-1H-isoquinoline-2-carboxylic acid benzyl ester]: the IC50 under setting [2] was 24.8 nM. `O=C(O)COc1ccc(Cl)cc1C1c2ccccc2CN1C(=O)CCn1ncc2c(F)cccc21` (single isomer, unassigned) [Example 535, (4-Chloro-2-{2-[3-(4-fluoro-indazol-1-yl)-propionyl]-2,3-dihydro-1H-isoindol-1-yl}-phenoxy)-acetic acid] yielded an IC50 under setting [1] of 15.1 nM. Same read-out and setting: the value for `O=C(O)COc1ccc(Cl)cc1C1c2ccccc2CN1C(=O)CCn1ncc2cc(Cl)ccc21` (stereo not shown) [Example 544] was 340 nM. For the compound `O=C(O)COc1ccc(Cl)cc1C1c2ccccc2CCN1C(=O)OCc1cc(Cl)ccc1Cl` (racemic) [Example 253], the IC50 under setting [2] is 6.52 nM.

`O=C(O)COc1ccc(Cl)cc1C1c2ccccc2CCN1C(=O)CN1CCCc2ccccc21` (racemic) [Example 79, (±)-{4-Chloro-2-[2-(2-3,4-dihydro-2H-quinolin-1-yl-acetyl)-1,2,3,4-tetrahydro-isoquinolin-1-yl]-phenoxy}-acetic acid] registered an IC50 under setting [2] of 62.9 nM.

For `O=C(O)COc1ccc(F)cc1C1c2cccc(F)c2CCN1C(=O)OCc1ccccc1` (racemic) [Example 34, (±)-1-(2-Carboxymethoxy-5-fluoro-phenyl)-5-fluoro-3,4-dihydro-1H-isoquinoline-2-carboxylic acid benzyl ester], the IC50 under setting [2] worked out at 7.22 nM. `Cc1ccc(OCC(=O)N2CCc3ccccc3C2c2cc(Cl)ccc2OCC(=O)O)cn1` (racemic) [Example 468] came in with an IC50 under setting [1] of 759 nM. In turn, `O=C(O)COc1ccc(Cl)cc1C1c2ccccc2CCN1C(=O)CCN1Cc2ccccc2C1=O` (racemic) [Example 445] came in with an IC50 under setting [1] of 130 nM.

Under setting [1], `O=C(O)COc1ccc(Cl)cc1C1c2ccccc2CN1C(=O)CCn1ncc2cccc(F)c21` (single isomer, unassigned) [Example 551, (4-Chloro-2-{2-[3-(7-fluoro-indazol-1-yl)-propionyl]-2,3-dihydro-1H-isoindol-1-yl}-phenoxy)-acetic acid] returned a half-inhibitory concentration (IC50) of 292 nM. In the case of `CCS(=O)(=O)c1ccc(OCC(=O)O)c(C2c3ccccc3CCN2C(=O)OCc2ccccc2)c1` (racemic) [Example 184], the IC50 under setting [2] is 346 nM. Same read-out and setting: for `COc1ccc(CCC(=O)N2CCc3ccccc3C2c2cc(F)ccc2OCC(=O)O)cc1` (racemic) [Example 130, (±)-(4-Fluoro-2-{2-[3-(4-methoxy-phenyl)-propionyl]-1,2,3,4-tetrahydro-isoquinolin-1-yl}-phenoxy)-acetic acid] the value was 270 nM.

Under setting [1], `Cc1nn(CCC(=O)N2Cc3ccccc3C2c2cc(Cl)ccc2OCC(=O)O)c2ccccc12` (single isomer, unassigned) [Example 545, (4-Chloro-2-{2-[3-(3-methyl-indazol-1-yl)-propionyl]-2,3-dihydro-1H-isoindol-1-yl}-phenoxy)-acetic acid] gave an IC50 of 982 nM. With `Cc1cccc(COC(=O)N2CCc3ccccc3C2c2cc(Cl)ccc2OCC(=O)O)c1C` (racemic) [Example 246], the IC50 under setting [2] stood at 3.43 nM. Still for that read-out and setting: for `O=C(O)COc1ccc(Cl)cc1C1c2ccccc2CCN1C(=O)C1CCc2ccccc2C1` (stereo not shown) [Example 77, {4-Chloro-2-[2-(1,2,3,4-tetrahydro-naphthalene-2-carbonyl)-1,2,3,4-tetrahydro-isoquinolin-1-yl]-phenoxy}-acetic acid] the value was 134 nM.
